Legend:
[1] = system: CAL-120, human breast adenocarcinoma cells; experiment: Proliferation assay CAL-120 (crystal violet, 4 days); format: cell-based; conditions: Homo sapiens, CAL-120, 96 h, CAL-120 cells, median, read-out: Prolif-CAL-120, IC50-[mol/l] (median)
Procedure: Human tumour cells were originally obtained from the American Type Culture Collection (ATCC), or from the Deutsche Sammlung von Mikroorganismen und Zellkulturen (DSMZ, German Collection of Microorganisms and Cell Cultures). Cultivated tumour cells (CAL-120, human breast adenocarcinoma cells, DSMZ ACC-459; MDA-MB-231, human breast cancer cells, ATCC HTB-26) were plated at a density of 4,000 cells/well in a 96-well multititer plate in 200 microL of their respective growth medium supplemented 10% fetal calf serum. After 24 hours, the cells of one plate (zero-point plate) were stained with crystal violet (see below), while the medium of the other plates was supplemented with the test substances in various concentrations (0 micromol/L, as well as in the range of 0.01-10 micromol/L; the final concentration of the solvent dimethyl sulfoxide was adjusted to 0.1%) using a Tecan HP D300 Digital Dispenser. The cells were incubated for 4 days in the presence of test substances. Cell proliferation was determined by staining the cells with crystal violet: the cells were fixed by adding 20 microL/measuring point of an 11% glutaric aldehyde solution for 15 minutes at room temperature. After three washing cycles of the fixed cells with water, the plates were dried at room temperature. The cells were stained by adding 100 microL/measuring point of a 0.1% crystal violet solution (pH 3.0). After three washing cycles of the stained cells with water, the plates were dried at room temperature. The dye was dissolved by adding 100 microL/measuring point of a 10% acetic acid solution. The extinction was determined by photometry at a wavelength of 595 nm. The change of cell number, in percent, was calculated by normalization of the measured values to the extinction values of the zero-point plate (=0%) and the extinction of the untreated (0 μM) cells (=100%). The IC50 values (inhibitory concentration at 50% of maximal effect) were determined by means of a 4 parameter fit.

[2] = molecular target: T1, CDK12 (nuclear staining in CAL-120 cells) (Homo sapiens, UniProt Q9NYV4); experiment: CDK12 nuclear protein level: immunofluorescence/high content analysis (CAL-120); format: cell-based; conditions: for DC50: CAL-120 cells, 24 h, immunofluorescence, 50% reduction of nuclear CDK12 staining intensity, median, read-out: CDK12 degradation IF, DC50- [mol/l] (median); for (IC50 CDK12 high ATP) to (Degradation DC50 CDK12) ratio: ratio of IC50 CDK12 high ATP kinase assay to DC50 CDK12 degradation (IF, CAL-120)
T1 construct: endogenous in cells; host or cells: CAL-120 human breast cancer cells (DSMZ ACC 459)
Procedure: In the context of the present invention, the term “DC50 CDK12” refers to the DC50 values obtained according to the assay described in this section (7) herein below, i.e. the DC50 values for the degradation of CDK12.
Plates are then incubated for 24 h at 37° C. in an humidified incubator and fixed with 4% PFA for 10 min. […] Nuclear and cytoplasmic intensity as well as the nuclear/cytoplasmic intensity ratio is determined by automated image analysis using custom generated scripts (MetaXpress). Data is then transferred to Genedata Screener software, normalized to DMSO and control and DC50 values (degrading concentration to achieve 50% reduction of nuclear CDK12 staining intensity relative to controls) are reported.

[3] = molecular target: CDK12/CycK (Homo sapiens, UniProt Q9NYV4); experiment: CDK12/CycK high ATP kinase assay (TR-FRET, 2 mM ATP); format: biochemical; conditions: 2 mM ATP (high ATP); median; read-out: CDK12/CyclinK, 2 mM ATP (high ATP), IC50-[mol/l] (median)
Procedure: In the context of the present invention, the term “IC50 CDK12 hATP” refers to the IC50 values obtained according to the assay described in this section (2.2) herein below, i.e. the IC50 values for the inhibition of CDK12 at high (2 mM) ATP.
CDK12/CycK-inhibitory activity of compounds of the present invention at 2 millimol/L adenosine-tri-phosphate (ATP) was quantified employing the TR-FRET (TR-FRET=Time Resolved Fluorescence Energy Transfer) based CDK12/CycK activity inhibition assay as described in the following paragraphs.
A complex of human recombinant CDK12 and human recombinant CycK (both N-terminally His-tagged, expression and purification as described above) was used as enzyme. As substrate for the kinase reaction biotinylated peptide biotin-Ahx-KFELLPTPPLSPSRRSGL (C-terminus in amid form) was used which can be purchased e.g. form the company Biosyntan (Berlin-Buch, Germany).
For the assay 50 nanoL of a 100 fold concentrated solution of the test compound in DMSO was pipetted into either a black low volume 384 well microtiter plate or a black 1536 well microtiter plate (both Greiner Bio-One, Frickenhausen, Germany), 2 microL of a solution of CDK12/CycK in aqueous assay buffer [25 millimol/L HEPES pH 7.5, 20 millimol/L MgCl2, 5 millimol/L β-glycerophosphate, 2 millimol/L EGTA, 1.0 millimol/L dithiothreitol, 0.01% (v/v) Nonidet-P40 (Sigma), 0.01% (w/v) bovine serum albumin] were added and the mixture was incubated for 15 min at 22° C. to allow pre-binding of the test compounds to the enzyme before the start of the kinase reaction. Then the kinase reaction was started by the addition of 3 microL of a solution ATP (3.33 millimol/L=>final conc. in the 5 microL assay volume is 2 millimol/L) and substrate (1.67 micromol/L=>final conc. in the 5 microL assay volume is 1 micromol/L) in assay buffer and the resulting mixture was incubated for a reaction time of 60 min at 22° C. The concentration of CDK12/CycK was adjusted depending of the activity of the enzyme lot and was chosen appropriate to have the assay in the linear range, typical concentrations were about 0.75 nanomol/L. The reaction was stopped by the addition of 3 microL of a solution of TR-FRET detection reagents (125 nanomol/L streptavidine-XL665 [Cisbio Bioassays, Codolet, France] and 0.67 nanomol/L anti-Phospho-c-Myc (Ser 62) (E1J4K)-antibody from Cell Signalling [#13748] and 2 nanomol/L LANCE EU-W1024 labeled anti-rabbit IgG antibody [Perkin-Elmer, product no. 0083]) in an aqueous EDTA-solution (133 millimol/L EDTA, 0.27% (w/v) bovine serum albumin in 66.7 millimol/L HEPES pH 7.5).
The resulting mixture was incubated 1 h at 22° C. to allow the formation of complex between the phosphorylated biotinylated peptide and the detection reagents. Subsequently the amount of phosphorylated substrate was evaluated by measurement of the resonance energy transfer from the Eu-chelate to the streptavidine-XL. Therefore, the fluorescence emissions at 620 nm and 665 nm after excitation at 350 nm was measured in a TR-FRET reader, e.g. a Pherastar FS (BMG Labtechnologies, Offenburg, Germany) or a Viewlux (Perkin-Elmer). The ratio of the emissions at 665 nm and at […] was taken as the measure for the amount of phosphorylated substrate. The data were normalised (enzyme reaction without inhibitor=0% inhibition, all other assay components but no enzyme=100% inhibition).

CDK12/CycK, sequence (Q9NYV4 with tags, fused parts or gaps): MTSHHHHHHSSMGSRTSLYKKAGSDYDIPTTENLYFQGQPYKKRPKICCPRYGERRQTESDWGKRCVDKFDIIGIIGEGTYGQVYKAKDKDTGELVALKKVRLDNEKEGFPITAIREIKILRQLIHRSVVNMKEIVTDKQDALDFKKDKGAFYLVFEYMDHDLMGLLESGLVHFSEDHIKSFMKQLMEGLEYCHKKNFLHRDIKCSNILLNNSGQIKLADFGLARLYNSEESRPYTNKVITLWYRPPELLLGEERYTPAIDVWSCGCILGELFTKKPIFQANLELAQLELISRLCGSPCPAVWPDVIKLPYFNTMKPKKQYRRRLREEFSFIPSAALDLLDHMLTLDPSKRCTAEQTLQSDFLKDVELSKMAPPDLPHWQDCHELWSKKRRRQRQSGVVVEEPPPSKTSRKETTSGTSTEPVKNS
CDK12/CycK, sequence (O75909 1-300 partner limits assumed): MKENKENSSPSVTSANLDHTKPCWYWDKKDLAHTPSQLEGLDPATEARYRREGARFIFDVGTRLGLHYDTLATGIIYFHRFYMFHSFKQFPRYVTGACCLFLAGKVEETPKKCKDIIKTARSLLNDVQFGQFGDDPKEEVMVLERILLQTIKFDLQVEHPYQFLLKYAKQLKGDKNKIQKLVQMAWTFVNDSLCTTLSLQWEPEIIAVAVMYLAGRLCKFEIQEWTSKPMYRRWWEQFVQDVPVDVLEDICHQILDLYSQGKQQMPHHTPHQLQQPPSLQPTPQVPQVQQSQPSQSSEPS
T1 sequence (Q9NYV4 whole entry): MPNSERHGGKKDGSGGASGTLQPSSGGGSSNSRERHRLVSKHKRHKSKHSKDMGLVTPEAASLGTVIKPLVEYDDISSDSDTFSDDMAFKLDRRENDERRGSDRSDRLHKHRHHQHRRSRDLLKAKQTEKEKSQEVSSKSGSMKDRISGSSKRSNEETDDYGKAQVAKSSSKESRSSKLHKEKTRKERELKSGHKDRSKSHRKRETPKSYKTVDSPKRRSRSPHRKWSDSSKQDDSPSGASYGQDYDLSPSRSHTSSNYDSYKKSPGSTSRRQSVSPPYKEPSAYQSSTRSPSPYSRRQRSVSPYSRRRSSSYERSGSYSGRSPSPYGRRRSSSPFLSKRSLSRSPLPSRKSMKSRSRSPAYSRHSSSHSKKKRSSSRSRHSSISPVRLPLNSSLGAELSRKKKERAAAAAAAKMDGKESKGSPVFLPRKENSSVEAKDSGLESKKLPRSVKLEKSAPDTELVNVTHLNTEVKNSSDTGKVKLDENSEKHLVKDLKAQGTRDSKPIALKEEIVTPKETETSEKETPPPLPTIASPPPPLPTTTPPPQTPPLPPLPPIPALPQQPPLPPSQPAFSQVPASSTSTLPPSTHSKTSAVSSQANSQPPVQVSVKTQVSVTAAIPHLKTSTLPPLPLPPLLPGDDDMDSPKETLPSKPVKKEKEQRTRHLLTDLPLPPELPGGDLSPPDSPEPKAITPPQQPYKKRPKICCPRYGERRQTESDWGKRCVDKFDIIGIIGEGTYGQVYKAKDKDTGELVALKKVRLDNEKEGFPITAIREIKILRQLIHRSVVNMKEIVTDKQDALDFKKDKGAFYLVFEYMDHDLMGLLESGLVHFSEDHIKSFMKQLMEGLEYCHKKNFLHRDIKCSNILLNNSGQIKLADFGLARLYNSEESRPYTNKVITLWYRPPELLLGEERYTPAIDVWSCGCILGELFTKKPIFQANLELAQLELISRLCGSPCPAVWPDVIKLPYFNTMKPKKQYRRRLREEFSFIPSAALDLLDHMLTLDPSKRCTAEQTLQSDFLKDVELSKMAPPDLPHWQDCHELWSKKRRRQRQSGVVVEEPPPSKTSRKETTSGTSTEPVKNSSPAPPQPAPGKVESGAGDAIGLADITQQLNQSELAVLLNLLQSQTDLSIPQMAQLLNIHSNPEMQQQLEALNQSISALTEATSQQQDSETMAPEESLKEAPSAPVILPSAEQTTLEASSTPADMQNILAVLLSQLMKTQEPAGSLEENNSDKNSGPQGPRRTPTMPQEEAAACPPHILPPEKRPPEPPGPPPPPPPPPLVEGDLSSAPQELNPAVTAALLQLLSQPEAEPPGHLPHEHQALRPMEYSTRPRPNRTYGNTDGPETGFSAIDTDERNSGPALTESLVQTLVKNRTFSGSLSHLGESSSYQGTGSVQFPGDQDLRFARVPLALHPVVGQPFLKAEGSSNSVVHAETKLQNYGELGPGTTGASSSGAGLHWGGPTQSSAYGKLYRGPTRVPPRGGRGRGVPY
T1 sequence (O75909 whole entry partner): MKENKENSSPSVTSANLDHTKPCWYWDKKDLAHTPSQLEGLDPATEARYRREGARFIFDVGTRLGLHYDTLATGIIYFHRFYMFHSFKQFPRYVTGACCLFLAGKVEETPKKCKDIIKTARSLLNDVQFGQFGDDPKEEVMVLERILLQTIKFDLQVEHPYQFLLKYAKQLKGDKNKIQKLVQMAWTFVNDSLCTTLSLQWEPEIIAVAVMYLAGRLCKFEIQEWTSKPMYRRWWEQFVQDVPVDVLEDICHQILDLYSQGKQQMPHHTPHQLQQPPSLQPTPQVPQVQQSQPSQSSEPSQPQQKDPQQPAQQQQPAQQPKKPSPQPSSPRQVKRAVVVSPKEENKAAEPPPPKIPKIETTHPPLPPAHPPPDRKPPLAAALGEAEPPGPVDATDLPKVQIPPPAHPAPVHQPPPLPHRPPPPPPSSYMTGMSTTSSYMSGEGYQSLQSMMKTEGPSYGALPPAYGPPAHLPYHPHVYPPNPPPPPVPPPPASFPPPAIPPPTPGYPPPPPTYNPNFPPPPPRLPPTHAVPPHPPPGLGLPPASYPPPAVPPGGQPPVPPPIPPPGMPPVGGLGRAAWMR

Row | SMILES | IC50 [1] [nM] | DC50 [2] [nM] | (IC50 CDK12 high ATP) to (Degradation DC50 CDK12) ratio [2] | IC50 [3] [nM]
1 | Cc1cccc2[nH]c(CNc3nc(N4CCN(C)CC4)nc4c(Br)cnn34)nc12 [Example 151, 8-bromo-N-[(4-methyl-1H-benzimidazol-2-yl)methyl]-2-(4-methylpiperazin-1-yl)pyrazolo[1,5-a][1,3,5]triazin-4-amine] | 24.7 | 2.07 | 2046 | 4240
2 | CC(C)c1cnn2c(NCc3nc4ccccc4[nH]3)nc(N(C)CC(C)(C)O)nc12 [Example 5, 1-{[4-{[(1H-benzimidazol-2-yl)methyl]amino}-8-(propan-2-yl)pyrazolo[1,5-a][1,3,5]triazin-2-yl](methyl)amino}-2-methylpropan-2-ol] |  | 11.4 | 455 | 5170
3 | CN1CCN(c2nc(NCc3nc4c(F)c(F)ccc4[nH]3)n3ncc(C4CC4)c3n2)CC1 [Example 159, 8-cyclopropyl-N-[(4,5-difluoro-1H-benzimidazol-2-yl)methyl]-2-(4-methylpiperazin-1-yl)pyrazolo[1,5-a][1,3,5]triazin-4-amine] | 1.73 | 0.521 | 18457 | 9620
4 | c1ccc(-c2cnn3c(NCc4nc5ccccc5[nH]4)nc(N4CCOCC4)nc23)cc1 [Example 104, N-[(1H-benzimidazol-2-yl)methyl]-2-(morpholin-4-yl)-8-phenylpyrazolo[1,5-a][1,3,5]triazin-4-amine] | 127 | 15.7 | >1272 | > 20000
5 | C[C@H]1CCCCN1c1nc(NCc2nc3ccccc3[nH]2)n2ncc(Br)c2n1 [Example 141, N-[(1H-benzimidazol-2-yl)methyl]-8-bromo-2-[(2S)-2-methylpiperidin-1-yl]pyrazolo[1,5-a][1,3,5]triazin-4-amine] | 24.5 | 6.11 | 214 | 1310
6 | NCCc1cccc2[nH]c(CNc3nc(N4CCOCC4)nc4c(Br)cnn34)nc12 [Example 112, N-{[7-(2-aminoethyl)-1H-benzimidazol-2-yl]methyl}-8-bromo-2-(morpholin-4-yl)pyrazolo[1,5-a][1,3,5]triazin-4-amine] |  | 50 | 134 | 6680
7 | NCCc1ccc2[nH]c(CNc3nc(N4CCOCC4)nc4c(Br)cnn34)nc2c1.O=CO [Example 113, formic acid-N-{[5-(2-aminoethyl)-1H-benzimidazol-2-yl]methyl}-8-bromo-2-(morpholin-4-yl)pyrazolo[1,5-a][1,3,5]triazin-4-amine (1/1)] |  | 8.64 | 197 | 1710
8 | CC(C)c1cnn2c(NCc3nc4ccccc4[nH]3)nc(N3CC4(COC4)C3)nc12 [Example 9, N-[(1H-benzimidazol-2-yl)methyl]-2-(2-oxa-6-azaspiro[3.3]heptan-6-yl)-8-(propan-2-yl)pyrazolo[1,5-a][1,3,5]triazin-4-amine] |  | 80.9 | >247 | > 20000
9 | CC(=O)NCCCc1cccc2[nH]c(CNc3nc(N4CCOCC4)nc4c(Br)cnn34)nc12.O=CO [Example 115, formic acid-N-{3-[2-({[8-bromo-2-(morpholin-4-yl)pyrazolo[1,5-a][1,3,5]triazin-4-yl]amino}methyl)-1H-benzimidazol-4-yl]propyl}acetamide (1/1)] |  | 45.3 | 256 | 11600
10 | NCCCc1cccc2[nH]c(CNc3nc(N4CCOCC4)nc4c(Br)cnn34)nc12.O=CO [Example 114, formic acid-N-{[4-(3-aminopropyl)-1H-benzimidazol-2-yl]methyl}-8-bromo-2-(morpholin-4-yl)pyrazolo[1,5-a][1,3,5]triazin-4-amine (1/1)] |  | 38.8 | 210 | 8130
11 | CC(C)c1cnn2c(NCc3nc4ccccc4[nH]3)nc(N3CCOC[C@@H]3C)nc12 [Example 6, N-[(1H-benzimidazol-2-yl)methyl]-2-[(3S)-3-methylmorpholin-4-yl]-8-(propan-2-yl)pyrazolo[1,5-a][1,3,5]triazin-4-amine] |  | 3.32 | 537 | 1780
12 | CC(C)c1cnn2c(NCc3nc4ccccc4[nH]3)nc(NCC(C)(C)O)nc12 [Example 10, 1-{[4-{[(1H-benzimidazol-2-yl)methyl]amino}-8-(propan-2-yl)pyrazolo[1,5-a][1,3,5]triazin-2-yl]amino}-2-methylpropan-2-ol] |  | 6.85 | 1277 | 8750
13 | CC(C)c1cnn2c(NCc3nc4ccccc4[nH]3)nc(N3CCCOCC3)nc12 [Example 8, N-[(1H-benzimidazol-2-yl)methyl]-2-(1,4-oxazepan-4-yl)-8-(propan-2-yl)pyrazolo[1,5-a][1,3,5]triazin-4-amine] |  | 20.7 | >956 | > 19800
14 | CC(C)c1cnn2c(NCc3nc4ccccc4[nH]3)nc(N3CCOC[C@H]3C)nc12 [Example 7, N-[(1H-benzimidazol-2-yl)methyl]-2-[(3R)-3-methylmorpholin-4-yl]-8-(propan-2-yl)pyrazolo[1,5-a][1,3,5]triazin-4-amine] |  | 63.6 | 161 | 10200

Reference: patent publication US20230117034A1, “PYRAZOLOTRIAZINES” (Bayer Aktiengesellschaft, priority 2019, published 2023)
